Data as given in patent US20250127790A1, “COMBINATION THERAPY USING VPS34 INHIBITORS” (Deciphera Pharmaceuticals, LLC, priority 2021, published 2025).

Tests used:
[1] = test system: Renca renal cell carcinoma cells; experiment: IncuCyte live-cell imaging, Caspase 3/7 activity, Renca cells; format: cell-based; conditions: 2 μM Compound 1, ADU-S100, 24 hours
Description: Renca cells were treated with a combination of DMSO or 2 μM Compound 1 alone or in combination with STING agonist ADU-S100 for 24 hours. Treatment with 1 μM staurosporine was used as a positive control for apoptosis induction. To assess cell proliferation, 1000 cells/well were plated in 96-well plates. After 24 h, cells were treated with compounds in 100 μL complete medium. Phase-contrast images (10×) were acquired every 3 h for 24-72 h and cell confluence (%) was calculated using the IncuCyte S3 live-cell analysis system (Sartorius). For monitoring apoptosis, 5 μM of IncuCyte Caspase-3/7 Green Dye (#4440, Sartorius) was added to the medium at the time of treatment. Both phase-contrast and green fluorescent images were captured. Caspase 3/7 induction was calculated by counting green fluorescent objects per mm^2 and dividing it by the percentage of cell confluency.

[2] = test system: THP-1 dual reporter cells; experiment: Cytokine secretion in wild-type and STING knockout THP-1 dual reporter cells; format: cell-based, human; conditions: wild-type THP-1 dual reporter cells
[3] = test system: CT26 colorectal cancer cells; experiment: Cytokine secretion assay, combination with cGAMP, CT26 cells; format: cell-based, mouse; conditions: 24 hours, 5 μM Compound 1 or 10 μM Compound 2, 10 mg/mL cGAMP
Description: CT26 cells were treated for 24 hours with DMSO or VPS34 inhibitors (5 μM Compound 1 or 10 μM Compound 2) in combination with 10 mg/mL STING agonist cGAMP (green bars). Cells were washed with PBS and RNA was isolated using the PureLink RNA kit (#12183018A, Thermo Fisher Scientific) according to the manufacturer's protocol. Genomic DNA was removed using DNA-binding columns (RNeasy plus kit, #74134, Qiagen) and/or DNase treatment (#12185010, Thermo Fisher Scientific). RNA was quantified using NanoDrop (Thermo Fisher Scientific) and 50 ng/μL RNA was used for cDNA synthesis with SuperScript IV VILO Master Mix (#11756050, Thermo Fisher Scientific). Quantitative RT-PCR (qRT-PCR) was run with diluted cDNA (1:25 or 1:12.5), PowerUp SYBR Green Master Mix (#A25741, Thermo Fisher Scientific), and 200 nM primers (see below) on a CFX Connect RT-PCR system (BioRad). Data was analyzed using the ΔΔCT method. Results are mean±SEM of three independent experiments.
Cell culture medium was centrifuged at 1600 rpm for 10 min at 4° C. and obtained supernatant stored at −80° C. Cytokine levels were quantified using following Meso Scale Discovery (MSD) assays: mouse U-PLEX RANTES/CCL5 (#K152A2K) and U-PLEX IP-10/CXCL10 (#K152UFK). Assays were run on the SECTOR Quickplex Imager and analyzed using Discovery Workbench version 4.0 (MSD).

[4] = test system: A-498 cells; experiment: Western blot, STAT1 phosphorylation in A-498 cells; format: cell-based, human
Description: A-498 cells were seeded at 1.5×10^5 cells/well in 6-well plates and cultured overnight. Cells were treated with 10 μg/mL mouse monoclonal antibody to human interferon α/β receptor chain 2 (α-IFNAR2) (clone: MMHAR-2, #21385-1, PBL Assay Science) or 10 μg/mL mouse IgG2a isotype control antibody (clone: eBM2a, #16-4724-81, Thermo Fisher Scientific). After 1 h, DMSO or 2 μM Compound 1 was added and cells were incubated for another 24 h. […] A-498 cells were washed in PBS and lysed in RIPA buffer (50 mM Tris HCl pH=7.4, 150 mM NaCl, 1% Triton X-100, 0.5% Na-deoxycholate, 0.1% SDS) containing protease inhibitor cocktail (#11836170001, Roche), and phosphatase inhibitor (#11836170001, Roche) for 10 min at 4° C. After centrifugation at 15000 rpm for 10 min at 4° C., the supernatant was obtained, and protein concentration was quantified using BCA assay (#23225, Thermo Fisher). Equal amounts were mixed with 0.1 M DTT and LDS Sample Buffer (#84788, Thermo Fisher), heated for 5 min at 90° C. before loading onto 4-12% Bis-Tris gels. Proteins were transferred to nitrocellulose membranes. Membranes were blocked in 5% non-fat dry milk in TBS with 0.05% Tween (TBS-T) for 1 h at RT, washed in TBS-T, and probed with primary antibodies shaking overnight at 4° C. After washing in TBS-T, membranes were incubated with IRDye 800CW goat anti-rabbit or IRDye 680RD donkey anti-mouse IgG (H+L) (#926-32211 and #926-68072, respectively, LI-COR, 1:10,000 dilution) secondary antibody in Intercept blocking buffer (#927-60001, LI-COR) for 1 h at RT. After washing in TBS-T, membranes were imaged using the Odyssey CLx (LI-COR). Band intensities were quantified using Image Studio Lite software version 5.2.5 (LI-COR).

[5] = test system: B16-F10 tumors; experiment: In vivo study of B16-F10 tumors; parameters: species or system C57BI/6 mice
Description: B16-F10 tumor-bearing C57BI/6 mice were treated with vehicle or 20 mg/kg Compound 1 p.o. (daily from day 7-16) in combination with PBS or 10 μg ADU-S100 i.t. (on days 9, 11, 13, and 15).

Row | Structure (SMILES) | Caspase 3/7 activity [1] | secretion of CCL5 [2] | secretion of CXCL10 [2] | secretion of IFNβ [2] | CCL5 protein secretion [3] | CXCL10 protein secretion [3] | phosphorylation of STAT1 ([4]; 2 μM Compound 1, 24 h) | total levels of STAT1 ([4]; 2 μM Compound 1, 24 h) | phosphorylation of STAT1 with addition of α-IFNAR2 ([4]; 10 μg/mL α-IFNAR2 antibody 1 h before 2 μM Compound 1, 24 h) | sensitization of B16-F10 tumors to STING agonist treatment (tumor growth, survival) ([5]; C57BI/6 mice, 20 mg/kg Compound 1 p.o. daily day 7-16 with 10 μg ADU-S100 i.t. on days 9, 11, 13, 15) | mice survival ([5]; Renca and B16-F10 tumor-bearing mice, Compound 1 with STING agonist treatment)
1 | Nc1ncnc2c1ncn2[C@@H]1O[C@@H]2COP(=O)([S-])O[C@@H]3[C@H](O)[C@@H](COP([O-])(=S)O[C@H]2[C@H]1O)O[C@H]3n1cnc2c(N)ncnc21.[Na+].[Na+] (some centres unmarked) [ADU-S100, reference compound] | mild effects | stimulates | stimulates | stimulates | – | – | – | – | – | – | –
2 | C[C@@H]1COCCN1c1cc(=O)n2c(n1)N(Cc1cncc(Cl)c1)[C@H](C(F)(F)F)CC2 [Compound 2, (S)-9-((5-chloropyridin-3-yl)methyl)-2-((R)-3-methylmorpholino)-8-(trifluoromethyl)-6,7,8,9-tetrahydro-4H-pyrimido[1,2-a]pyrimidin-4-one] | – | – | – | – | increased | increased | – | – | – | – | –
3 | C[C@@H]1COCCN1c1cc(N2CCCC[C@@H]2C(F)(F)F)[nH]c(=O)c1 [Compound 1, 4-((R)-3-methylmorpholino)-6-((R)-2-(trifluoromethyl)piperidin-1-yl)pyridin-2(1H)-one] | increased | – | – | – | increased | increased | increased | did not alter | inhibited | sensitized | significantly improved
